Legend:
[1] = molecular target: T1, ΔF508-CFTR (Homo sapiens, UniProt P13569, DEL508-508); assay: CFTR cell surface levels using HRP-tagged ΔF508-CFTR expressing CFBE cells, in the presence of a co-corrector; type: cell-based; settings: HRP-tagged ΔF508-CFTR expressing CFBE cells, in the presence of 3 μM co-corrector; for EC50: read-out: EC50
T1 construct: host or cells: CFBE41o-, doxycycline-inducible
Method in brief: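 Cells were seeded with 0.5 μg/mL doxycycline and held 68 h at 37 °C. Test compounds plus 3 μM co-corrector (final 0.1% DMSO) were then added for 20 h at 33 °C. Washed cells received HRP substrate, and luminescence was normalized between DMSO and 3 μM co-corrector controls.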

[2] = molecular target: T1, ΔF508-CFTR; assay: CFTR cell surface levels using HRP-tagged ΔF508-CFTR expressing CFBE cells, intrinsic corrector capacity; type: cell-based; settings: HRP-tagged ΔF508-CFTR CFBE41o- cells, compounds alone (intrinsic corrector capacity), 20 hours at 33° C.; for % Activation: positive control 3 μM corrector; for EC50: read-out: EC50
Method in brief: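 Here the cells express ΔF508-CFTR with horseradish peroxidase inserted in extracellular loop 4, so only rescued channel at the surface gives luminescent signal. Compounds act on their own, 20 h at the reduced temperature of 33 °C; values are percent activity relative to DMSO and a 3 μM corrector.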

T1 sequence (P13569 with tags, fused parts or gaps DEL508-508): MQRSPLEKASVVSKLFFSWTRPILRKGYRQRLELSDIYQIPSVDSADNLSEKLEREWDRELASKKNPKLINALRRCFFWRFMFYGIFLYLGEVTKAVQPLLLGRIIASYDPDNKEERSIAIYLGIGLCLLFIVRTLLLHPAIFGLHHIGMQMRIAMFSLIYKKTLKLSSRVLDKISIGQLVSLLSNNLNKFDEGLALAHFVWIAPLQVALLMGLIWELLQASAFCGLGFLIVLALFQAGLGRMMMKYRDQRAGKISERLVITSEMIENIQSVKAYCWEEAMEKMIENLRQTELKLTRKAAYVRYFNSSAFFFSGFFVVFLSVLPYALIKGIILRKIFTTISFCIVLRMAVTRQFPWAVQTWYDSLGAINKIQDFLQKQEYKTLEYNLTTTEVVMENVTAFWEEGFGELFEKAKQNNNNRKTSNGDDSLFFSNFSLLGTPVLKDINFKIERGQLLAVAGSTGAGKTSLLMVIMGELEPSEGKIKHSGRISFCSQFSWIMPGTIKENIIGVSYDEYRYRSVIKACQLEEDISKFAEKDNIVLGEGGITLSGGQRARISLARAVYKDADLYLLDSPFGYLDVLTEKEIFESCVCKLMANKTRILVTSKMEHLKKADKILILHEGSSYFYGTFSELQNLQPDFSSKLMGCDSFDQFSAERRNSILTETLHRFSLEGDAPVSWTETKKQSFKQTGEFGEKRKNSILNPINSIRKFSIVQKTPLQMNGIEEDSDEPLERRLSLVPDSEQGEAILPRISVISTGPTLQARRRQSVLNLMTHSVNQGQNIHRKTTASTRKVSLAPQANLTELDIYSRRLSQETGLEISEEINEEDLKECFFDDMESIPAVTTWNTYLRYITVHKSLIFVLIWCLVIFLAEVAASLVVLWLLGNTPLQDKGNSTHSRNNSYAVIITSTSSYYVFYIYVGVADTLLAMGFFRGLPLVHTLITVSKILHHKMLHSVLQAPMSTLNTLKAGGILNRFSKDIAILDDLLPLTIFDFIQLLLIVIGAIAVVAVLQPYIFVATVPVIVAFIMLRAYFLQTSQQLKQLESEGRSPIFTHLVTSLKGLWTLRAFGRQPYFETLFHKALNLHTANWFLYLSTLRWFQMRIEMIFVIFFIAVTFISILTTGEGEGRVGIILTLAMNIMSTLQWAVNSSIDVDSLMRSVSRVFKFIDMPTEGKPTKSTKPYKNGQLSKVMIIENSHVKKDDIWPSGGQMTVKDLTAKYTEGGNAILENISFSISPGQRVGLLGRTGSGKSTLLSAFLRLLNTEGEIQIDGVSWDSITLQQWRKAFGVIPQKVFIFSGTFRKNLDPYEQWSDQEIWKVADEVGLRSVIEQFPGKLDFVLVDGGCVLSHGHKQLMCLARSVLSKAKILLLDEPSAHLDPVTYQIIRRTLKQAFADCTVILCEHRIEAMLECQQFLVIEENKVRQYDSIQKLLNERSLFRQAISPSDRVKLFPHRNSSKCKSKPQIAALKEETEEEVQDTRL

Compound	% Activation [1] [%]	EC50 [1] [µM]	% Activation [2] [%]	EC50 [2] [µM]
CC(C)c1nn(-c2cccc(N(C)C)c2)c2nc(C(=O)O)cc(-c3ccc(N4CCOCC4)nc3)c12 [compound 85, 1-[3-(dimethylamino)phenyl]-4-[6-(morpholin-4-yl)pyridin-3-yl]-3-(propan-2-yl)-1H-pyrazolo[3,4-b]pyridine-6-carboxylic acid]	504.7	0.702	314.6	0.92
COC(=O)N1CC(c2nn(-c3ccccc3)c3nc(C(=O)O)cc(-c4ccc(N5CCOCC5)cc4)c23)C1 [compound 86, 3-[1-(methoxycarbonyl)azetidin-3-yl]-4-[4-(morpholin-4-yl)phenyl]-1-phenyl-1H-pyrazolo[3,4-b]pyridine-6-carboxylic acid]	300.25	2.55	129.75	3.34
CN(C)Cc1nn(-c2ccccc2)c2nc(C(=O)O)cc(-c3ccc(N4CCOCC4)cc3)c12 [compound 87, 3-[(dimethylamino)methyl]-4-[4-(morpholin-4-yl)phenyl]-1-phenyl-1H-pyrazolo[3,4-b]pyridine-6-carboxylic acid]	148.9	3.34	28.91	> 10
CC(C)c1nn(-c2cccc(N3CCOCC3)c2)c2nc(C(=O)O)cc(-c3cnc(N(C)C)nc3)c12 [compound 88, 4-[2-(dimethylamino)pyrimidin-5-yl]-1-[3-(morpholin-4-yl)phenyl]-3-(propan-2-yl)-1H-pyrazolo[3,4-b]pyridine-6-carboxylic acid]	453.15	0.525	288.95	0.693
Cc1nn(-c2cccc(N(C)C)c2)c2nc(C(=O)O)cc(-c3cnc(N4CCOCC4)nc3)c12 [compound 90, 1-[3-(dimethylamino)phenyl]-3-methyl-4-[2-(morpholin-4-yl)pyrimidin-5-yl]-1H-pyrazolo[3,4-b]pyridine-6-carboxylic acid]	367.15	0.883	169.65	1.04
CN(C)c1ncc(-c2cc(C(=O)O)nc3c2c(C(C)(C)C)nn3C2CCCC2)cn1 [compound 91, 3-tert-butyl-1-cyclopentyl-4-[2-(dimethylamino)pyrimidin-5-yl]-1H-pyrazolo[3,4-b]pyridine-6-carboxylic acid]	176.6	3.34	43.54	3.34
CC(C)(CO)c1nn(-c2ccccc2)c2nc(C(=O)O)cc(-c3ccc(N4CCOCC4)nc3)c12 [compound 92, 3-(1-hydroxy-2-methylpropan-2-yl)-4-[6-(morpholin-4-yl)pyridin-3-yl]-1-phenyl-1H-pyrazolo[3,4-b]pyridine-6-carboxylic acid]	99.81	> 10	2.873	> 10
CC(C)c1nn(C2CCCCC2)c2nc(C(=O)O)cc(-c3ccc(N(C)C)nc3)c12 [compound 93, 1-cyclohexyl-4-[6-(dimethylamino)pyridin-3-yl]-3-(propan-2-yl)-1H-pyrazolo[3,4-b]pyridine-6-carboxylic acid]	379.57	0.491	175.6	0.68
Cc1nn(-c2ccn(C)c(=O)c2)c2nc(C(=O)O)cc(-c3ccc(N4CCOCC4)cc3)c12 [compound 94, 3-methyl-1-(1-methyl-2-oxo-1,2-dihydropyridin-4-yl)-4-[4-(morpholin-4-yl)phenyl]-1H-pyrazolo[3,4-b]pyridine-6-carboxylic acid]	119.4	> 10	3.061	> 10
CC(C)c1nn(C2CCN(CC#N)CC2)c2nc(C(=O)O)cc(-c3ccc(N4CCOCC4)cc3)c12 [compound 95, 1-[1-(cyanomethyl)piperidin-4-yl]-4-[4-(morpholin-4-yl)phenyl]-3-(propan-2-yl)-1H-pyrazolo[3,4-b]pyridine-6-carboxylic acid]	145.4	3.34	16.66	> 10
Cc1nn(-c2ccccc2)c2nc(C(=O)O)cc(-c3ccc(NC4CCC4)cc3)c12 [compound 96, 4-[4-(cyclobutylamino)phenyl]-3-methyl-1-phenyl-1H-pyrazolo[3,4-b]pyridine-6-carboxylic acid]	329.75	1.2	141.5	1.53
Cc1nn(-c2ccccc2)c2nc(C(=O)O)cc(-c3ccc(N4CC(F)(F)C4)cc3)c12 [compound 97, 4-[4-(3,3-difluoroazetidin-1-yl)phenyl]-3-methyl-1-phenyl-1H-pyrazolo[3,4-b]pyridine-6-carboxylic acid]	268	1.16	96.51	1.53
Cc1nn(-c2ccccc2)c2nc(C(=O)O)cc(-c3ccc(N4CCN(CC#N)CC4)cc3)c12 [compound 98, 4-{4-[4-(cyanomethyl)piperazin-1-yl]phenyl}-3-methyl-1-phenyl-1H-pyrazolo[3,4-b]pyridine-6-carboxylic acid]	350.65	0.834	165.8	1.15
Cc1nn(C2CCCCC2)c2nc(C(=O)O)cc(-c3ccc(N(C)C)nc3)c12 [compound 99, 1-cyclohexyl-4-[6-(dimethylamino)pyridin-3-yl]-3-methyl-1H-pyrazolo[3,4-b]pyridine-6-carboxylic acid]	247.8	1.1	80.69	1.53
CC(C)(C)c1nn(C2CCCC2)c2nc(C(=O)O)cc(-c3cnc(N4CCOCC4)nc3)c12 [compound 100, 3-tert-butyl-1-cyclopentyl-4-[2-(morpholin-4-yl)pyrimidin-5-yl]-1H-pyrazolo[3,4-b]pyridine-6-carboxylic acid]	310	0.457	115.7	0.981
Cc1nn(-c2cccc(F)c2)c2nc(C(=O)O)cc(-c3ccc(N4CCOCC4)nc3)c12 [compound 101, 1-(3-fluorophenyl)-3-methyl-4[6-(morpholin-4-yl)pyridin-3-yl]-1H-pyrazolo[3,4-b]pyridine-6-carboxylic acid]	331.65	0.999	143.75	1.61
Cc1nn(-c2cccc(C(F)(F)F)c2)c2nc(C(=O)O)cc(-c3ccc(N4CCOCC4)nc3)c12 [compound 102, 3-methyl-4-[6-(morpholin-4-yl)pyridin-3-yl]-1-[3-(trifluoromethyl)phenyl]-1H-pyrazolo[3,4-b]pyridine-6-carboxylic acid]	384	0.949	153	1.04
CC(C)(C)OC(=O)N1CCCC1c1nn(-c2ccccc2)c2nc(C(=O)O)cc(-c3ccc(N4CCOCC4)nc3)c12 (stereo not drawn) [compound 103, 3-[1-(tert-butoxycarbonyl)pyrrolidin-2-yl]-4-[6-(morpholin-4-yl)pyridin-3-yl]-1-phenyl-1H-pyrazolo[3,4-b]pyridine-6-carboxylic acid]	302	0.694	115.65	0.703
Cc1nn(-c2ccc(F)cc2F)c2nc(C(=O)O)cc(-c3ccc(N4CCOCC4)nc3)c12 [compound 104, 1-(2,4-difluorophenyl)-3-methyl-4-[6-(morpholin-4-yl)pyridin-3-yl]-1H-pyrazolo[3,4-b]pyridine-6-carboxylic acid]	308.55	1.01	130.4	1.24
Cc1nn(-c2ccc(F)cc2F)c2nc(C(=O)O)cc(-c3ccc(N4CCOCC4)cc3)c12 [compound 105, 1-(2,4-difluorophenyl)-3-methyl-4-[4-(morpholin-4-yl)phenyl]-1H-pyrazolo[3,4-b]pyridine-6-carboxylic acid]	383.25	0.879	179.05	0.949
Cc1nn(C2CCCC2)c2nc(C(=O)O)cc(-c3ccc(N4CCOCC4)nc3)c12 [compound 106, 1-cyclopentyl-3-methyl-4[6-(morpholin-4-yl)pyridin-3-yl]-1H-pyrazolo[3,4-b]pyridine-6-carboxylic acid]	237.45	2.62	73	3.34
Cc1nn(-c2ccccc2)c2nc(C(=O)O)cc(-c3ccc(N4CCN(CCO)CC4)cc3)c12 [compound 107]	164.5	3.34	20.98	> 10
Cc1nn(-c2ccccc2)c2nc(C(=O)O)cc(-c3ccc(N4CCC(F)(F)CC4)cc3)c12 [compound 108, 4-[4-(4,4-difluoropiperidin-1-yl)phenyl]-3-methyl-1-phenyl-1H-pyrazolo[3,4-b]pyridine-6-carboxylic acid]	329.7	0.752	145.5	0.904
Cc1nn(-c2ccccc2)c2nc(C(=O)O)cc(-c3ccc(N4CCC(F)(F)C4)cc3)c12 [compound 111, 4-[4-(3,3-difluoropyrrolidin-1-yl)phenyl]-3-methyl-1-phenyl-1H-pyrazolo[3,4-b]pyridine-6-carboxylic acid]	299.8	0.424	110.34	0.459

Reference: patent US9796711B2, “Substituted pyrazolo[3,4-b]pyridin-6-carboxylic acids and method of use” (AbbVie S.àr.l., priority 2015, dated 2017)
